From article PMC3118939 (Chemical research in toxicology, 2011)
Read-outs that look alike come from different tables or passages of the source.

How the values were obtained:
rodents = details: cited from earlier work
[1] = tested on: hypoxanthine phosphoribosyl transferase (hprt) gene of Chinese hamster ovary cells (CHO); format: cell-based; details: estimated from ref 53, 69-71
rat = rat model; cited from earlier work
colon of C57BL/6 mice = details: cited from earlier work
CDF1 mice = details: cited from earlier work
[2] = tested on: colon of C57BL/6 mice (Big Blue mouse); details: cited from earlier work
human hepatocytes [3] = assay: 4-ABP and HAA biotransformation in human hepatocytes; format: in vitro ADME; details: PhIP 10 μM in human hepatocytes
rat hepatocytes = details: cited from earlier work; for extent of metabolism in rat hepatocytes: even after 24 h; for N-oxidation products as share of the dose: rat hepatocytes
human hepatocytes [4] = details: cited from earlier work; for dose metabolized in human hepatocyte preparations: 10 μM dose; for dose that underwent metabolism: human hepatocytes, 10 μM, after 24 h incubation, previous studies
P450 1A2 = details: human versus rat P450 1A2; cited from earlier work
human hepatocytes [5] = assay: 4-ABP- and HAA-DNA adduct formation in freshly cultured human hepatocytes; details: carcinogen 10 μM, 24 h incubation

Nc1ccc(-c2ccccc2)cc1 [4-ABP, 4-aminobiphenyl]
cancer induction (rodents): induces cancer of the urinary bladder, liver, and mammary gland
hprt mutants induced by one dG-C8 adduct per 10^7 bases in the CHO genome ([1]; dose concentration 2 μM): ~ 0.7 hprt mutants per one million c

Nc1ccc2c(n1)[nH]c1ccccc12 [AαC, 2-amino-9H-pyrido[2,3-b]indole]
hepatocarcinogenicity (rat): not a hepatocarcinogen
aberrant crypt foci (colon of C57BL/6 mice): induces aberrant crypt foci
hprt mutants induced by one dG-C8 adduct per 10^7 bases in the CHO genome ([1]; dose concentration 1.5 μM): ~2.5 hprt mutants per one million c
tumor induction (CDF1 mice): causes liver and blood vessel tumors
lacI transgene mutagenicity [2]: potent lacI transgene mutagen

Cn1c(=NO)n([C@@H]2O[C@H](C(=O)O)[C@@H](O)[C@H](O)[C@H]2O)c2ncc(-c3ccccc3)cc21 [HONH-N3-PhIP]
level of metabolite formed, lower than HON-PhIP-N^2-Gl (human hepatocytes [3]): ~ 10 fold

Cc1cnc2ccc3c(nc(N)n3C)c2n1 [MeIQx, 2-amino-3,8-dimethylimidazo[4,5-f]quinoxaline]
extent of metabolism in rat hepatocytes (rat hepatocytes): poorly metabolized
N-oxidation products as share of the dose (rat hepatocytes): less than 2%
dose metabolized in human hepatocyte preparations (human hepatocytes [4]): > 75%
dose that underwent metabolism (human hepatocytes [4]): up to 97%
catalytic efficiency of N-oxidation, human P450 1A2 superior to rat P450 1A2 (P450 1A2): 11 fold
hprt mutants induced by one dG-C8 adduct per 10^7 bases in the CHO genome ([1]; dose concentration 1.5 μM): about 1.5 hprt mutants per one million c

Cn1c(N)nc2ncc(-c3ccccc3)cc21 [PhIP, 2-amino-1-methyl-6-phenylimidazo[4,5-b]pyridine]
extent of metabolism in rat hepatocytes (rat hepatocytes): poorly metabolized
N-oxidation products as share of the dose (rat hepatocytes): less than 2%
dose metabolized in human hepatocyte preparations (human hepatocytes [4]): > 75%
dose that underwent metabolism (human hepatocytes [4]): up to 97%
catalytic efficiency of N-oxidation, human P450 1A2 superior to rat P450 1A2 (P450 1A2): 19 fold
hprt mutants induced by one dG-C8 adduct per 10^7 bases in the CHO genome ([1]; dose concentration 1.2 μM): ~2.8 hprt mutants per one million c

Nc1nc2c(nc(Nc3ccc(-c4ccccc4)cc3)n2[C@H]2C[C@H](O)[C@@H](CO)O2)c(=O)[nH]1 [dG-C8-4-ABP, N-(Deoxyguanosin-8-yl)-4-aminobiphenyl]
DNA adduct formation, Adducts per 10^7 Bases (human hepatocytes [5]; human hepatocytes donor HH B): 150 Adducts per 10^7 Bases
DNA adduct formation, Adducts per 10^7 Bases (human hepatocytes [5]; human hepatocytes donor HH C): 38.8 ± 4.8 Adducts per 10^7 Bases
DNA adduct formation, Adducts per 10^7 Bases (human hepatocytes [5]; human hepatocytes donor HH D): 100 Adducts per 10^7 Bases
DNA adduct formation, Adducts per 10^7 Bases (human hepatocytes [5]; human hepatocytes donor HH F): 49.0 ± 1.7 Adducts per 10^7 Bases
DNA adduct formation, Adducts per 10^7 Bases (human hepatocytes [5]; human hepatocytes donor HH G): 87.9 ± 8.3 Adducts per 10^7 Bases
DNA adduct formation, Adducts per 10^7 Bases (human hepatocytes [5]; human hepatocytes donor HH H): 70.0 ± 5.8 Adducts per 10^7 Bases

Nc1nc2c(nc(Nc3ccc4c(n3)[nH]c3ccccc34)n2[C@H]2C[C@H](O)[C@@H](CO)O2)c(=O)[nH]1 [dG-C8-AαC, N-(Deoxyguanosin-8-yl)-AαC]
DNA adduct formation, Adducts per 10^7 Bases (human hepatocytes [5]; human hepatocytes donor HH B): 32.5 ± 1.8 Adducts per 10^7 Bases
DNA adduct formation, Adducts per 10^7 Bases (human hepatocytes [5]; human hepatocytes donor HH C): 44.4 ± 5.6 Adducts per 10^7 Bases
DNA adduct formation, Adducts per 10^7 Bases (human hepatocytes [5]; human hepatocytes donor HH D): 109 ± 6.4 Adducts per 10^7 Bases
DNA adduct formation, Adducts per 10^7 Bases (human hepatocytes [5]; human hepatocytes donor HH F): 72.0 ± 5.9 Adducts per 10^7 Bases
DNA adduct formation, Adducts per 10^7 Bases (human hepatocytes [5]; human hepatocytes donor HH G): 82.0 ± 15.4 Adducts per 10^7 Bases
DNA adduct formation, Adducts per 10^7 Bases (human hepatocytes [5]; human hepatocytes donor HH H): 31.4 ± 3.3 Adducts per 10^7 Bases

Cn1c(Nc2nc3c(=O)[nH]c(N)nc3n2[C@H]2C[C@H](O)[C@@H](CO)O2)nc2c3cccnc3ccc21 [dG-C8-IQ, N-(deoxyguanosin-8-yl)-IQ]
DNA adduct formation, Adducts per 10^7 Bases (human hepatocytes [5]; human hepatocytes donor HH A): 9.8 ± 1.1 Adducts per 10^7 Bases
DNA adduct formation, Adducts per 10^7 Bases (human hepatocytes [5]; human hepatocytes donor HH B): 10.3 ± 0.6 Adducts per 10^7 Bases
DNA adduct formation, Adducts per 10^7 Bases (human hepatocytes [5]; human hepatocytes donor HH C): 18.3 ± 0.8 Adducts per 10^7 Bases
DNA adduct formation, Adducts per 10^7 Bases (human hepatocytes [5]; human hepatocytes donor HH D): 26.2 ± 1.9 Adducts per 10^7 Bases
DNA adduct formation, Adducts per 10^7 Bases (human hepatocytes [5]; human hepatocytes donor HH G): 13.5 ± 1.5 Adducts per 10^7 Bases
DNA adduct formation, Adducts per 10^7 Bases (human hepatocytes [5]; human hepatocytes donor HH H): 7.0 ± 2.2 Adducts per 10^7 Bases

Cc1cnc2ccc3c(nc(Nc4nc5c(=O)[nH]c(N)nc5n4[C@H]4C[C@H](O)[C@@H](CO)O4)n3C)c2n1 [dG-C8-MeIQx, N-(deoxyguanosin-8-yl)-MeIQx]
DNA adduct formation, Adducts per 10^7 Bases (human hepatocytes [5]; human hepatocytes donor HH A): 3.4 ± 0.3 Adducts per 10^7 Bases
DNA adduct formation, Adducts per 10^7 Bases (human hepatocytes [5]; human hepatocytes donor HH B): 12.4 ± 0.6 Adducts per 10^7 Bases
DNA adduct formation, Adducts per 10^7 Bases (human hepatocytes [5]; human hepatocytes donor HH C): 13.9 ± 0.2 Adducts per 10^7 Bases
DNA adduct formation, Adducts per 10^7 Bases (human hepatocytes [5]; human hepatocytes donor HH D): 12.2 ± 3.5 Adducts per 10^7 Bases
DNA adduct formation, Adducts per 10^7 Bases (human hepatocytes [5]; human hepatocytes donor HH F): 19.0 ± 1.9 Adducts per 10^7 Bases
DNA adduct formation, Adducts per 10^7 Bases (human hepatocytes [5]; human hepatocytes donor HH G): 16.1 ± 1.0 Adducts per 10^7 Bases
DNA adduct formation, Adducts per 10^7 Bases (human hepatocytes [5]; human hepatocytes donor HH H): 5.1 ± 0.1 Adducts per 10^7 Bases

Cn1c(Nc2nc3c(=O)[nH]c(N)nc3n2[C@H]2C[C@H](O)[C@@H](CO)O2)nc2ncc(-c3ccccc3)cc21 [dG-C8-PhIP, N-(deoxyguanosin-8-yl)-PhIP]
DNA adduct formation, Adducts per 10^7 Bases (human hepatocytes [5]; human hepatocytes donor HH A): 13.4 ± 1.7 Adducts per 10^7 Bases
DNA adduct formation, Adducts per 10^7 Bases (human hepatocytes [5]; human hepatocytes donor HH B): 22.0 Adducts per 10^7 Bases
DNA adduct formation, Adducts per 10^7 Bases (human hepatocytes [5]; human hepatocytes donor HH C): 7.5 ± 1.6 Adducts per 10^7 Bases
DNA adduct formation, Adducts per 10^7 Bases (human hepatocytes [5]; human hepatocytes donor HH D): 7.7 ± 1.0 Adducts per 10^7 Bases
DNA adduct formation, Adducts per 10^7 Bases (human hepatocytes [5]; human hepatocytes donor HH F): 14.0 ± 0.6 Adducts per 10^7 Bases
DNA adduct formation, Adducts per 10^7 Bases (human hepatocytes [5]; human hepatocytes donor HH G): 30.6 ± 2.4 Adducts per 10^7 Bases
DNA adduct formation, Adducts per 10^7 Bases (human hepatocytes [5]; human hepatocytes donor HH H): 6.0 ± 1.0 Adducts per 10^7 Bases
